Data from patent publication US20100130581A1, “COMPOUNDS AND METHODS FOR THE TREATMENT OF PAIN” (THE UNIVERSITY OF QUEENSLAND, priority 2006, published 2010).
“Also recorded” adds a separate entry of the source. Where a SMILES comes first, the peptide text is derived from it. [ ]: non-standard residue; d: D form. ξ: configuration not given here. Dmt = Cc1cc(O)cc(C)c1C[C@H](N)C(=O)O; ξGly(decyl) = CCCCCCCCCCC(N)C(=O)O; ξGly(octyl) = CCCCCCCCC(N)C(=O)O; ξAoc(2) = CCCCCCC(N)C(=O)O

Columns and labels:
[1] = molecular target: T1, μ-opioid receptor (Homo sapiens, UniProt P35372); experiment: Whole cell-based binding assay, displacement of 3H-DAMGO
T1 construct: SH-SY5Y cells endogenously expressing μ- and δ-opioid receptors; endogenous in cells; host or cells: SH-SY5Y cells
T1 sequence (P35372 whole entry): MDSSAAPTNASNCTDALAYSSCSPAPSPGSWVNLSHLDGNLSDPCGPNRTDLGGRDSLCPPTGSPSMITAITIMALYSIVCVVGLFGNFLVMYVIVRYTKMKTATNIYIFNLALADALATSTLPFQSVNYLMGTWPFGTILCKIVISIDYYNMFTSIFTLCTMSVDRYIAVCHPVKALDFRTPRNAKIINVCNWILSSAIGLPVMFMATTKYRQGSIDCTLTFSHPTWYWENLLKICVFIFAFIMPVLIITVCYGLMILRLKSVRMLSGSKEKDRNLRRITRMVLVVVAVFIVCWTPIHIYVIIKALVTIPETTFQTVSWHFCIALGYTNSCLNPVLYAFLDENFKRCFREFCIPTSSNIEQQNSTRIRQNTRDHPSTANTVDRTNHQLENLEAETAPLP
Protocol: Media was removed and cells were washed with PBS before pre-incubation in 300 μL of binding buffer. Binding studies were performed with 100 μL of appropriate concentrations of ^3H-labeled DAMGO (a selective μ-opioid receptor agonist) and 100 μL of competitor or blank in binding buffer at 37° C. for 60 min. Competition binding experiments were performed using […] of ^3H-labelled DAMGO in the absence or presence of increasing concentrations of unlabeled derivatised endomorphins or derivatised endomorphin analogs. A 1 μM excess of unlabelled DAMGO was used to determine non-specific binding. Following incubation, the cells were washed with PBS and recovered from culture plates using 500 μL of […] before transfer to scintillation vials. Liquid scintillation cocktail (Ultima Gold, Packard, Meriden, USA) was added to these vials for counting in a liquid scintillation analyser. Data are expressed as the mean±SEM of % specific binding of triplicate determinations performed on at least three independent plates of cells. Data were plotted using the one-site competition functions of the PRISM program (Graphpad Inc., San Diego, USA) (see FIGS. 1a, 1b and 7).

[2] = test system: μ- and δ-opioid receptors; experiment: Cell based assay of cAMP inhibition in forskolin treated SH-SY5Y cells; conditions: for IC50: Efficacy SH-SY5Y cell line; for Inhibit c-AMP (%): SH-SY5Y cell line, normalised to the % of cAMP inhibition seen by native endomorphin-1
Protocol: SH-SY5Y cells endogenously expressing μ- and δ-opioid receptors were cultured (100 μl) in a 96 well-plate and incubated (usually overnight) until 80% confluent. Once cells were ready for assay, Endo-1, Endo-2 and derivatives/analogs were diluted in DMEM culture medium containing 30 μM forskolin. The diluted derivatised endomorphins or derivatised endomorphin analogs were then applied to separate wells for agonist studies and co-incubated for antagonist studies. Cells were incubated with derivatised endomorphins or derivatised endomorphin analogs at 37° C. for 30 minutes, medium was aspirated and cells were lysed using lysis buffer from a cAMP Biotrak EIA kit (Amersham, Buckinghamshire, UK). An anti-cAMP antibody was added to the lysate, and the mixture incubated at 4° C. for 2 hours followed by the addition of a cAMP peroxidase conjugate, and incubated at 4° C. for a further hour. A 3,3′5,5′-tetramethylbenzidine (TMB) substrate provided by the Biotrak EIA kit was then incubated with cell lysate for 1 hour and finally 1 […] was added to facilitate a colour change, which is proportional to the amount of cAMP captured. A cAMP standard curve from 0 to 3200 fmol was also generated concurrently. Plates were then read by a plate reader at 450 nm and compared back to the cAMP standard curve. All data are compared to the maximum cAMP response to forskolin and are represented as the mean+/−standard error of three experiments performed in triplicate. All data are plotted using PRISM program (GraphPad, San Diego, Calif.) (see FIGS. 2a and 2b).

[3] = Plasma stability assay; format: in vitro ADME; conditions: male, human, plasma at 37° C.
Protocol: To measure the enzymatic stability of endomorphin-1 analogs in plasma, blood was taken from a healthy volunteer and the blood was centrifuged at 1700 rpm for 30 minutes to remove blood cells. The plasma was placed into a water bath heated at 37° C. and Endomorphin-1 and analog was added to give final concentrations of 0.7 mg/mL. Samples were incubated for varying time periods between 0 and 180 minutes. 50 μL of sample was taken at each time-point and 75 μL of acetonitrile was added to quench any enzyme activity. The samples were then placed on ice and upon completion of the assay, all samples were centrifuged at 9000 rpm for 3 minutes to remove all precipitated plasma proteins. The amount of intact peptide remaining in the supernatent of each sample was determined using RP HPLC by measuring the area under the curve of the peak at the appropriate retention time compared to a standard curve of concentration for each peptide (see FIG. 8).

[4] = test system: homogenate of Caco-2 cells; experiment: Enzymatic stability study in homogenized Caco-2 cells; format: in vitro ADME; conditions: Caco-2 cell line; graded by number of ♦ (up to 5), key not given
Protocol: Approximately 1×10^5 cells/mL concentration of cells were seeded onto the 96 well plate. […] The media was changed every other day. 21-28 days old cells were used for the experiments. the media was removed from the wells and each well washed with 100 μL 0.2% EDTA solution followed by washing three times with Hanks' balanced salt solution (HBSS) containing 25 mM Hepes (pH 7.4). Finally, 100 μL of this buffer was placed in each well and the plate cooled in ice. The monolayer of cells in each well was then disrupted by 2×1 second pulses with a Sonics Vibracell ultrasonic processor set at an amplitude of 30. The cell debris was then removed by centrifugation of the plate at 2000 rpm for 5 min. 80 μL cell homogenate supernatant of each well was then transferred to a clean 96 well plate, and 20 μL of HBSS-Hepes was added. Three of the wells' contents were set aside and assayed for total protein content using the Lowry assay. The compounds to be tested were dissolved in HBSS-Hepes buffer to a concentration of 200 μM.
This assay was performed at 37° C. […] The stability assay on each compound was conducted in triplicate and the concentrations averaged for each time point.

[5] = test system: gastrointestinal motility; experiment: Gut motility study (charcoal meal); format: in vivo, rat; conditions: rats
Protocol: Each dose of Compound 8, morphine and vehicle was administered to naïve rats as a 100 μL i.v. bolus injection via an indwelling cannula surgically implanted into the jugular vein at least 12 h prior to dose administration. Rats were anaesthetised with 3% isoflurane: 97% oxygen inhalational anaesthetic. A 1 cm incision was made on the right ventral side of the trachea. Using blunt dissection, the jugular vein was exposed and a small incision made to allow cannula insertion. The cannula was inserted into the vein, its integrity assessed, and tied into place using sterile sutures. The wound was sutured, the cannula was exteriorised at the back of the neck and secured using a metal spring. The rats were kept warm during surgical recovery. Animals were housed singly for the remainder of the experimentation period. Rats were inspected regularly from the time of surgery with respect to exploring behaviour, body weight and water intake. No adverse signs from the surgery were observed.
Charcoal meal was prepared by mixing 10% charcoal and 5% arabic gum in distilled, deionised water. Each rat received a single oral gavage of charcoal meal. Thirty minutes later the animal was euthanised using CO2 asphyxiation and the intestine was removed and measured. The distance from the pyloric sphincter to the caudal end of the charcoal and the total distance of the small intestine to the distal part of the ileum were measured in cm. Gastrointestinal motility was determined as the distance traveled by the charcoal relative to the total length of the small intestine, expressed as a percentage.
Each rat received a single bolus i.v. dose of Compound 8, morphine or vehicle. Animals received either vehicle (n=5), morphine at 1 mg/kg (n=3), 2 mg/kg (n=5), 10 mg/kg (n=5) and 30 mg/kg (n=2) or Compound 8 at 0.3 mg/kg (n=3), 1 mg/kg (n=5), 3 mg/kg (n=4), and 10 mg/kg (n=3). Thirty minutes after i.v. dosing an oral gavage of charcoal meal was administered under light (50%:50% CO2:O2) anaesthesia. Thirty minutes later the animal was euthanised via CO2 asphyxiation and the intestine was removed and the distance moved by the charcoal meal was measured.
The intestine was measured for distance of charcoal meal traveled in the small intestine and total length of small intestine. The % distance of charcoal transit was assessed relative to the total length of the small intestine. % inhibition of gastrointestinal motility by morphine or Compound 8 was calculated by the following equation: [(average % charcoal transit in vehicle rats)−(% distance charcoal transit)×100]/(average % charcoal transit in vehicle rats).

[6] = test system: CCI-rats; experiment: Pain relief in CCI-rat model of neuropathic pain (von Frey paw withdrawal thresholds); format: in vivo

## CCCCCCC(N)C(=O)N[C@@H](Cc1c(C)cc(O)cc1C)C(=O)N1CCC[C@H]1C(=O)N[C@@H](Cc1c[nH]c2ccccc12)C(=O)N[C@@H](Cc1ccccc1)C(N)=O (single isomer, unassigned) [Compound 7]
[1]
  Ki: 71 pM
[2]
  IC50: 189 pM
  Inhibit c-AMP (%): 153%
[3]
  half-life at 0.7 mg/mL: 4.55 min

## CCCCCCC(NC(=O)[C@H](Cc1ccccc1)NC(=O)[C@H](Cc1c[nH]c2ccccc12)NC(=O)[C@@H]1CCCN1C(=O)[C@@H](N)Cc1ccc(O)cc1)C(N)=O (some centres unmarked) [Compound 19] (H-YPWF[ξAoc(2)]-NH2)
[4]
  Enzymatic stability 2 h: ♦

## CCCCCCCCCCC(N)C(=O)N[C@@H](Cc1c(C)cc(O)cc1C)C(=O)N1CCC[C@H]1C(=O)N[C@@H](Cc1c[nH]c2ccccc12)C(=O)N[C@@H](Cc1ccccc1)C(N)=O (some centres unmarked) [Compound 9] (H-[ξGly(decyl)][Dmt]PWF-NH2)
[1]
  Ki: 735 pM
[2]
  IC50: 928 pM
[3]
  half-life at 0.7 mg/mL: 20.3 min

## CCCCCCCCCCC(N)C(=O)N[C@@H](Cc1ccc(O)cc1)C(=O)N1CCC[C@H]1C(=O)N[C@@H](Cc1c[nH]c2ccccc12)C(=O)N[C@@H](Cc1ccccc1)C(N)=O (some centres unmarked) [Compound 2] (H-[ξGly(decyl)]YPWF-NH2)
[1]
  Ki: 35500 pM
[2]
  Inhibit c-AMP (%): 89%

## CCCCCCC(N)C=N[C@@H](Cc1ccc(O)cc1)C(=O)N1CCC[C@H]1C(=O)N[C@@H](Cc1c[nH]c2ccccc12)C(=O)N[C@@H](Cc1ccccc1)C(N)=O (some centres unmarked) [Compound 10]
[1]
  Ki: 42400 pM

## CN1CC[C@]23c4c5ccc(O)c4O[C@H]2[C@@H](O)C=C[C@H]3[C@H]1C5 [morphine, reference compound]
[5]; single i.v. bolus, 1 and 2 mg/kg
  inhibition of gastrointestinal motility, in words: did not significantly (p>0.05) inhibit gastrointestinal motility
[5]; single i.v. bolus, 10 and 30 mg/kg
  inhibition of gastrointestinal transit, in words: significant (p<0.05) inhibition of gastrointestinal transit

## CCCCCCCCC(N)C(=O)N[C@@H](Cc1c(C)cc(O)cc1C)C(=O)N1CCC[C@H]1C(=O)N[C@@H](Cc1c[nH]c2ccccc12)C(=O)N[C@@H](Cc1ccccc1)C(N)=O (some centres unmarked) [Compound 8] (H-[ξGly(octyl)][Dmt]PWF-NH2)
[1]
  Ki: 470 pM
[2]
  IC50: 63.4 pM
[3]
  half-life at 0.7 mg/mL: 41.4 min
[6]; contralateral hindpaw, CCI-rats, i.v., Endo1 1 mg/kg, Compound 8 0.3-3 mg/kg
  antinociception / baseline PWT responses, in words: did not significantly alter baseline PWT responses; also recorded: no significant antinociception in the contralateral hindpaw
[6]; contralateral hindpaw, drug-naïve CCI-rats, i.v., Endo1 1.6 μmol/kg, Compound 8 1.2 μmol/kg
  baseline PWT responses, in words: did not significantly alter baseline PWT responses
[6]; contralateral hindpaw, s.c., 0.3-3 mg/kg, vs vehicle
  anti-nociceptive effect, in words: did not produce a significant, dose-dependent anti-nociceptive effect; also recorded: did not produce dose-dependent anti-nociceptive pain relief
[6]; drug-naïve CCI-rats, ipsilateral hindpaw, i.v.
  extent and duration of anti-allodynia compared with Endo1: significantly (p<0.05) larger extent and duration of anti-allodynia
[6]; ipsilateral hindpaw, CCI-rats, single bolus i.v. doses, vs vehicle
  anti-allodynic effect, in words: significant, dose-dependent anti-allodynic effect; also recorded: dose-dependent relief of tactile allodynia
[6]; ipsilateral hindpaw, CCI-rats, single bolus s.c. doses 0.1-10 mg/kg, vs vehicle
  anti-allodynic effect, in words: significant, dose-dependent anti-allodynic effect; also recorded: dose-dependent relief of tactile allodynia
[6]; ipsilateral hindpaw, i.v., CCI-rats, over 3 h
  dose-normalised area under the anti-allodynic response versus time curve (AUC), in words: significantly greater (p<0.05) than that of both Endo1 and vehicle
[6]; ipsilateral hindpaw, i.v., highest dose tested
  time of mean peak anti-allodynic response: ~0.5 h
[6]; ipsilateral hindpaw, i.v., highest dose tested (3 mg/kg)
  mean duration of action: > 3 h
[6]; ipsilateral hindpaw, i.v., lower doses (0.1 and 0.3 mg/kg)
  mean duration of action: 2 to 3 h
[6]; ipsilateral hindpaw, i.v., over doses tested
  time of mean peak anti-allodynic response: 0.5 to 1 h
[6]; ipsilateral hindpaw, s.c., 0.1-10 mg/kg
  time of mean peak anti-allodynic response: 0.5 to 1 h
[6]; ipsilateral hindpaw, s.c., highest dose tested
  time of mean peak anti-allodynic response: ~0.5 h
[5]; i.v., 10 mg/kg
  % inhibition of gastrointestinal transit, compared with i.v. morphine: did not differ significantly (p>0.05)
[5]; single bolus i.v. doses, FIG. 15
  average gradient of log dose vs. % inhibition of gastrointestinal motility curve: lower than the average gradient for the curve corresponding to morphine
[5]; single i.v. bolus, 0.3, 1, 3 and 10 mg/kg
  inhibition of gastrointestinal motility, in words: inhibited gastrointestinal motility at all doses assessed
